Measured values reported in patent publication US10981932B2, “Macrocyclic indole derivatives” (Bayer Aktiengesellschaft, priority 2016, dated 2021).
Counter-ions that a name gives are not always drawn. Like-named read-outs stand apart in the source and are kept apart here.

Tests used:
SUDHL5 [1] = experiment: Induction of cytotoxicity (CellTiter-Glo, 5 h), SUDHL5
SUDHL10 [2] = experiment: Anti-proliferative effect (CellTiter-Glo, 72 h), SUDHL10; assay type: cell-based; conditions: SUDHL10 cells, antiproliferation, 72 h incubation, median, read-out: Antiproli SUDHL10 [M] (median)
Outline: (§1)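 Viable cells quantified with CellTiter-Glo after 72 h at 37 °C; rim wells excluded; day 0 plate as baseline.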

SUDHL10 [3] = experiment: Induction of cytotoxicity (CellTiter-Glo, 5 h), SUDHL10
Procedure: Therefore, cytotoxicity assays were run in parallel in SUDHL5 and SUDHL10 cells.
The different cell lines were plated in culture medium (RPMI 1640 [GIBCO #22400-089]supplemented with 10% Fetal Bovine Serum) at a density of 3.300 cells in 30 μl/well in a sterile, solid black, flat bottom, polystyrene, TC-treated 384-well microplate (Corning #3571) using Multidrop Combi Reagent Dispenser. As a control, medium without cells was also added to the plate. Cells were incubated in a humidified incubator at 37° C. overnight. On the next day, the cells were treated with compounds (stock solution, 10 mM in DMSO) using the HP D300 Digital Dispenser in a concentration range of 3.3×10e-5 M (33 μM) to 5×10e-9 M (5 nM) in a single-dot curve with at least 16 dilutions and a DMSO concentration of 0.33%. Rim wells were excluded. The cells were incubated for 5 h hours in a humidified incubator at 37° C. After this incubation, 30 μl of CellTiter-Glo@ Luminescent Cell Viability reagent (Promega, G7573) was added to each well using the Multidrop Combi Reagent Dispenser, followed by 15 min incubation on a shaker at room temperature. Finally, luminescence was read at 0.1 ms, with a gain of 3000 using the PHERAstar FS microplate reader (BMG Labtech).
The Bella DRC Master Sheet was used to calculate IC50s, with fixed CI=0 and C0=1.

SUDHL5 [4] = experiment: Anti-proliferative effect (CellTiter-Glo, 72 h), SUDHL5; assay type: cell-based; conditions: SUDHL5 cells, antiproliferation, 72 h incubation, median, read-out: Antiproli SUDHL5 [M] (median)
Outline: as §1

MCL-1 = MCL-1 (Homo sapiens, UniProt Q07820); experiment: Protein-protein interaction assay MCL-1/Noxa BH3 peptide (MCL-1 assay), TR-FRET; assay type: binding; conditions: MBP-MCL-1 / Noxa BH3-derived peptide, median
Chain of MCL-1 (Q07820 whole entry): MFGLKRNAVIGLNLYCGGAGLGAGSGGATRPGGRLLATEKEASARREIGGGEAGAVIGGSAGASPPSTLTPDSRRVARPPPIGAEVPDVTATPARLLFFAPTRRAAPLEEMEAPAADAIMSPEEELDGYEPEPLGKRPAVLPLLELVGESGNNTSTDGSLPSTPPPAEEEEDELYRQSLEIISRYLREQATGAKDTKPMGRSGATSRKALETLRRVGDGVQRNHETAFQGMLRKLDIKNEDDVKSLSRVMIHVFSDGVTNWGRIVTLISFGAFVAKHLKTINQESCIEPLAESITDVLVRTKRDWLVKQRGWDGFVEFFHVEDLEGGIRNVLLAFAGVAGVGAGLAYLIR
Outline: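 Displacement of the biotinylated Noxa BH3 peptide from MBP-tagged human MCL-1 (1 nM) is detected by time-resolved FRET. Compounds are tested in duplicate across eleven concentrations up to 20 μM, incubated 1 h at 22 °C and overnight at 4 °C, and IC50 is fitted with a four-parameter equation.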

MV-4-11 = experiment: Anti-proliferative effect (CellTiter-Glo, 72 h), MV-4-11; assay type: cell-based; conditions: MV-4-11 cells, median, read-out: IC50 antiproliferation assay MV-4-11 [M] (median)
Outline: as §1

OPM2 = experiment: Anti-proliferative effect (CellTiter-Glo, 72 h), OPM2; assay type: cell-based; conditions: OPM2 cells, median, read-out: IC50 antiproliferation assay OPM2 [M] (median)
Outline: as §1

SUDHL10 [5] = experiment: Induction of caspase-3/7 activity (Caspase-Glo 3/7), SUDHL10; assay type: cell-based; conditions: caspase-3/7 induction, SUDHL10 cells, 3 h treatment, median
Outline: (§2)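 Caspase-Glo 3/7 luminescence, 3 h compound exposure, 37 °C, humidified. Minus medium-only blank. EC50 fit: C0=1, plateau = reference max induction.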

SUDHL5 [6] = experiment: Induction of caspase-3/7 activity (Caspase-Glo 3/7), SUDHL5; assay type: cell-based; conditions: caspase-3/7 induction, SUDHL5 cells, 3 h treatment, median
Outline: as §2

A2780 = experiment: Anti-proliferative effect (CellTiter-Glo, 72 h), A2780; assay type: cell-based; conditions: A2780 cells, median, read-out: IC50 antiproliferation assay A2780 [M] (median)
Outline: as §1

[7] = read-out: Cytotox SUDHL5 [M] (median), SUDHL5 cells, cytotoxicity induction, CellTiter-Glo, 5 h incubation, median
[8] = read-out: Cytotox SUDHL10 [M] (median), SUDHL10 cells, cytotoxicity induction, CellTiter-Glo, 5 h incubation, median
[9] = Homo sapiens, SU-DHL10, 5 h, read-out: Cytotox SUDHL10 [M] (median), SUDHL10 cells, cytotoxicity induction, CellTiter-Glo, 5 h incubation, median
[10] = Homo sapiens, SU-DHL-5, 5 h, read-out: Cytotox SUDHL5 [M] (median), SUDHL5 cells, cytotoxicity induction, CellTiter-Glo, 5 h incubation, median

## Cc1c2c(nn1C)CN(C)CCCn1c(C(=O)O)c(CCCOc3cccc4ccccc34)c3cccc-2c31 (single isomer, unassigned; enantiomer 1) [Example 1-34, 7,10,11-trimethyl-1-[3-(naphthalen-1-yloxy)propyl]-4,5,6,7,8,10-hexahydropyrazolo[3′,4′:7,8][1,5]diazecino[9,10,1-hi]indole-2-carboxylic Acid-N-ethylethanamine Salt (Enantiomer 1)]
SUDHL5 [1]; [7]
  IC50: 3.36e-06 M
SUDHL10 [2]; Homo sapiens, SU-DHL10, 72 h
  IC50: > 3.3e-05 M
SUDHL10 [3]; [8]
  IC50: 4.53e-06 M
SUDHL5 [4]; Homo sapiens, SU-DHL-5, 72 h
  IC50: 1.31e-05 M
MCL-1
  IC50: 6.71 nM
MV-4-11
  IC50: 8.89e-06 M
OPM2; Homo sapiens, OPM-2, 72 h
  IC50: 2.69e-05 M
SUDHL10 [5]
  EC50: 6.15 µM
SUDHL5 [6]
  EC50: 4.5 µM
A2780; Homo sapiens, A2780, 72 h
  IC50: > 3.3e-05 M

## CN(C)S(=O)(=O)N1CCN(c2ccc(OCc3nn(C)c4c3-c3cccc5c(CCCOc6cccc7ccccc67)c(C(=O)O)n(c35)CCCCCC4)cc2)CC1 (single isomer, unassigned; enantiomer 1) [Example 1-40, 3-({4-[4-(dimethylsulfamoyl)piperazin-1-yl]phenoxy}methyl)-1-methyl-7-[3-(naphthalen-1-yloxy)propyl]-10,11,12,13,14,15-hexahydro-1H-pyrazolo[4′,3′:4,5]azacycloundecino[3,2,1-hi]indole-8-carboxylic acid-N-ethylethanamine Salt (Enantiomer 1)]
SUDHL5 [1]; [7]
  IC50: 1.69e-05 M
SUDHL10 [2]; Homo sapiens, SU-DHL10, 72 h
  IC50: 1.93e-06 M
SUDHL10 [3]; [8]
  IC50: 2.3e-05 M
SUDHL5 [4]; Homo sapiens, SU-DHL-5, 72 h
  IC50: 5.8e-06 M
MCL-1
  IC50: 36.8 nM
MV-4-11; Homo sapiens, MV4-11, 72 h
  IC50: 4.94e-06 M
OPM2
  IC50: 5.38e-06 M
SUDHL10 [5]
  EC50: > 33 µM
SUDHL5 [6]
  EC50: 21.6 µM
A2780; Homo sapiens, A2780, 72 h
  IC50: 3.95e-06 M

## Cc1nn(C)c2c1-c1cccc3c(CCCOc4cccc5ccccc45)c(C(=O)O)n(c13)CCCN(c1ccc(N3CCOCC3)cc1)C2 (single isomer, unassigned; enantiomer 1) [Example 1-99, 9,11-Dimethyl-7-[4-(morpholin-4-yl)phenyl]-1-[3-(1-naphthyloxy)propyl]-4,5,6,7,8,9-hexahydropyrazolo[3′,4′:7,8][1,5]diazecino[9,10,1-hi]indole-2-carboxylic Acid (Enantiomer 1)]
SUDHL5 [1]; [7]
  IC50: 1.3e-05 M
SUDHL10 [2]; Homo sapiens, SU-DHL10, 72 h
  IC50: 4.63e-06 M
SUDHL10 [3]; [9]
  IC50: 1.93e-05 M
SUDHL5 [4]; Homo sapiens, SU-DHL-5, 72 h
  IC50: 8.76e-06 M
MCL-1
  IC50: 20.3 nM
MV-4-11; Homo sapiens, MV4-11, 72 h
  IC50: 7.19e-06 M
OPM2; Homo sapiens, OPM-2, 72 h
  IC50: 1.98e-05 M
SUDHL10 [5]
  EC50: 13.5 µM
SUDHL5 [6]
  EC50: 9 µM
A2780; Homo sapiens, A2780, 72 h
  IC50: 1.12e-05 M

## CCS(=O)(=O)N1CCN(c2ccc(N3CCCn4c(C(=O)O)c(CCCOc5cccc6ccccc56)c5cccc(c54)-c4c(C)nn(C)c4C3)cc2)CC1 (single isomer, unassigned; enantiomer 1) [Example 1-109, 7-{4-[4-(Ethylsulfonyl)piperazin-1-yl]phenyl}-9,11-dimethyl-1-(3-(1-naphthyloxy)propyl-4,5,6,7,8,9-hexahydropyrazolo[3′,4′:7,8][1,5]diazecino[9,10,1-hi]indole-2-carboxylic Acid (Enantiomer 1)]
SUDHL5 [1]; [10]
  IC50: 8.44e-06 M
SUDHL10 [2]; Homo sapiens, SU-DHL10, 72 h
  IC50: 4.08e-06 M
SUDHL10 [3]; [9]
  IC50: 1.48e-05 M
SUDHL5 [4]; Homo sapiens, SU-DHL-5, 72 h
  IC50: 4.55e-06 M
MCL-1
  IC50: 18.5 nM
MV-4-11; Homo sapiens, MV4-11, 72 h
  IC50: 6.94e-06 M
OPM2; Homo sapiens, OPM-2, 72 h
  IC50: 8.14e-06 M
SUDHL10 [5]; Homo sapiens, SU-DHL10, 3 h
  EC50: 8.86 µM
SUDHL5 [6]
  EC50: 7.09 µM
A2780; Homo sapiens, A2780, 72 h
  IC50: 8.7e-06 M

## Cc1c2c(nn1C)CN(C)CCCCn1c(C(=O)O)c(CCCOc3cccc4ccccc34)c3cccc-2c31 (single isomer, unassigned; enantiomer 1) [Example 068, 2,3,14-trimethyl-7-[3-(naphthalen-1-yloxy)propyl]-10,11,12,13,14,15-hexahydro-2H-pyrazolo[3′,4′:8,9][1,6]diazacycloundecino[10,11,1-hi]indole-8-carboxylic Acid (Enantiomer 1)]
SUDHL5 [1]; [7]
  IC50: 2.25e-06 M
SUDHL10 [2]
  IC50: 1.87e-06 M
SUDHL10 [3]; [8]
  IC50: 5.02e-06 M
SUDHL5 [4]
  IC50: 2.53e-06 M
MCL-1
  IC50: 4.42 nM
MV-4-11; Homo sapiens, MV4-11, 72 h
  IC50: 1.69e-05 M
OPM2; Homo sapiens, OPM-2, 72 h
  IC50: 9.82e-06 M
SUDHL10 [5]
  EC50: 11.9 µM
SUDHL5 [6]
  EC50: 1.63 µM
A2780
  IC50: > 3.3e-05 M
A2780; Homo sapiens, A2780, 72 h
  IC50: 1.85e-05 M

## CC(C)c1c2c(nn1C)CN(C)CCCn1c(C(=O)O)c(CCCOc3cccc4ccccc34)c3cccc-2c31 (single isomer, unassigned; enantiomer 1) [Example 114, 7,10-dimethyl-1-[3-(naphthalen-1-yloxy)propyl]-11-(propan-2-yl)-4,5,6,7,8,10-hexahydropyrazolo[3′,4′:7,8][1,5]diazecino[9,10,1-hi]indole-2-carboxylic acid (enantiomer 1)]
SUDHL5 [1]; [10]
  IC50: 6.61e-06 M
SUDHL10 [2]; Homo sapiens, SU-DHL10, 72 h
  IC50: 5.31e-06 M
SUDHL10 [3]; [9]
  IC50: 8.59e-06 M
SUDHL5 [4]; Homo sapiens, SU-DHL-5, 72 h
  IC50: 3.28e-06 M
MCL-1
  IC50: 3.03 nM
MV-4-11; Homo sapiens, MV4-11, 72 h
  IC50: 4.54e-06 M
OPM2; Homo sapiens, OPM-2, 72 h
  IC50: 1.1e-05 M
SUDHL10 [5]; Homo sapiens, SU-DHL10, 3 h
  EC50: 17.7 µM
SUDHL5 [6]
  EC50: 8.86 µM
A2780; Homo sapiens, A2780, 72 h
  IC50: 7.06e-06 M

## Cn1nc(COc2ccc(N3CCOCC3)cc2)c2c1COCC=CCn1c(C(=O)O)c(CCCOc3cccc4ccccc34)c3cccc-2c31 (single isomer, unassigned; enantiomer 1) [Example 119, (+)-E/Z)-1-methyl-3-{[4-(morpholin-4-yl)phenoxy]methyl}-7-[3-(naphthalen-1-yloxy)propyl]-1,10,13,15-tetrahydropyrazolo[4′,3′:9,10][1,6]oxazacycloundecino[8,7,6-hi]indole-8-carboxylic Acid (Enantiomer 1)]
SUDHL5 [1]; [10]
  IC50: 2.85e-05 M
SUDHL10 [2]; Homo sapiens, SU-DHL10, 72 h
  IC50: 2e-05 M
SUDHL10 [3]; [9]
  IC50: > 3.3e-05 M
SUDHL5 [4]; Homo sapiens, SU-DHL-5, 72 h
  IC50: 1.35e-05 M
MCL-1
  IC50: 21.3 nM
MV-4-11; Homo sapiens, MV4-11, 72 h
  IC50: 8.87e-06 M
OPM2; Homo sapiens, OPM-2, 72 h
  IC50: 6.62e-06 M
SUDHL10 [5]; Homo sapiens, SU-DHL10, 3 h
  EC50: 22.5 µM
SUDHL5 [6]; Homo sapiens, SU-DHL-5, 3 h
  EC50: 19.5 µM
A2780; Homo sapiens, A2780, 72 h
  IC50: 1.21e-05 M

## CCN(CC)S(=O)(=O)N1CCN(c2ccc(OCc3nn(C)c4c3-c3cccc5c(CCCOc6cccc7ccccc67)c(C(=O)O)n(c35)CCCCOC4)cc2)CC1 (single isomer, unassigned; enantiomer 2) [Example 1-5, 3-({4-[4-(diethysulfamoyl)piperazin-1-yl]phenoxy}methyl)-1-methyl-7-[3-(naphthalen-1-yloxy)propyl]-1,10,11,12,13,15-hexahydropyrazolo[4′,3′:9,10][1,6]oxazacycloundecino[8,7,6-hi]indole-8-carboxylic Acid (Enantiomer 2)]
SUDHL5 [1]; [7]
  IC50: 3.2e-06 M
SUDHL10 [2]
  IC50: 1.02e-06 M
SUDHL10 [3]; [8]
  IC50: 4.77e-06 M
SUDHL5 [4]
  IC50: 7.67e-07 M
MCL-1
  IC50: 1.51 nM
MV-4-11; Homo sapiens, MV4-11, 72 h
  IC50: 7.2e-07 M
OPM2
  IC50: 1.13e-06 M
SUDHL10 [5]
  EC50: 2.62 µM
SUDHL5 [6]
  EC50: 2.52 µM
A2780
  IC50: 6.24e-06 M

## Cc1c2c(nn1C)CN(C)CCCn1c(C(=O)O)c(CCCOc3cccc4ccccc34)c3cccc-2c31 (single isomer, unassigned; enantiomer 2) [Example 1-35, 7,10,11-trimethyl-1-[3-(naphthalen-1-yloxy)propyl]-4,5,6,7,8,10-hexahydropyrazolo[3′,4′:7,8][1,5]diazecino[9,10,1-hi]indole-2-carboxylic Acid-N-ethylethanamine Salt (Enantiomer 2)]
SUDHL5 [1]; [7]
  IC50: 2.02e-05 M
SUDHL10 [2]
  IC50: 3.25e-05 M
SUDHL10 [3]; [8]
  IC50: 1.18e-05 M
SUDHL5 [4]
  IC50: 2.56e-05 M
MCL-1
  IC50: 110 nM
MV-4-11
  IC50: 1.96e-05 M
OPM2
  IC50: > 3.3e-05 M
SUDHL10 [5]
  EC50: > 33 µM
SUDHL5 [6]
  EC50: 26.9 µM
A2780
  IC50: > 3.3e-05 M

## COCc1c2c(nn1C)COCCCCn1c(C(=O)O)c(CCCOc3cccc4ccccc34)c3cccc-2c31 (single isomer, unassigned; enantiomer 2) [Example 101, 3-(methoxymethyl)-2-methyl-7-[3-(naphthalen-1-yloxy)propyl]-2,10,11,12,13,15-hexahydropyrazolo[4′,3′:9,10][1,6]oxazacycloundecino[8,7,6-hi]indole-8-carboxylic acid-N-ethylethanamine Salt (Enantiomer 2)]
SUDHL5 [1]; [7]
  IC50: 2.03e-06 M
SUDHL10 [2]
  IC50: 4.47e-06 M
SUDHL10 [3]; [8]
  IC50: 4e-06 M
SUDHL5 [4]
  IC50: 1.32e-06 M
MCL-1
  IC50: 1.85 nM
MV-4-11; Homo sapiens, MV4-11, 72 h
  IC50: 1.85e-06 M
OPM2; Homo sapiens, OPM-2, 72 h
  IC50: 4.37e-06 M
SUDHL10 [5]
  EC50: 3.43 µM
SUDHL5 [6]
  EC50: 1.74 µM
A2780
  IC50: 2.71e-05 M
